Test results: the PolyMetriX glass transition set
± gives the standard deviation of the reports.

Structure (SMILES) | glass transition temperature [°C]
*CC(*)c1ccc(I)cc1 (repeat unit) | 158.00
*CC1CCC(CNC(=O)c2cc(C(=O)N*)cc(C(C)(C)C)c2)CC1 (repeat unit) | 236.00
*CC(*)CC(C)(C)C (repeat unit) | 190.00
*CCCCCCNC(=O)/C=C(\C)C(=O)N* (repeat unit) | 94.00
*C(=O)Nc1ccc(Oc2ccc(C3(c4ccc(Oc5ccc(NC(=O)c6ccc7c(c6)C(=O)N(c6ccc(Oc8cccc(N9C(=O)c%10ccc(*)cc%10C9=O)c8)cc6)C7=O)cc5)cc4)NC(=O)c4ccccc43)cc2)cc1 (repeat unit) | 272.00
*c1ccc(-c2ccc(N(*)c3ccc(CCCC)cc3)cc2)cc1 (repeat unit) | 180.00
*/C(C#N)=C(\C#N)n1c(=O)c2cc3c(=O)n(*)c(=O)c3cc2c1=O (repeat unit) | 210.00
*CC(*)c1ccc(C(=O)CCN2CCCCC2)cc1 (repeat unit) | 38.00
*CCCCCCN1C(=O)C(=O)N(c2ccc(C)c(N3C(=O)C(=O)N(*)C3=O)c2)C1=O (repeat unit) | 181.50
*/C=C/C1CC(*)C(C#N)([Si](C)(C)C)C1 (repeat unit) | 211.00
*O[Si](C)(C)c1ccc([Si](C)(C)O[SiH](*)C)cc1 (repeat unit) | -65.00
*Oc1ccc(Oc2ccc(C(=O)c3ccc(C(=O)c4ccc(*)cc4)cc3)cc2)cc1 (repeat unit) | 152.00
*O[Si](*)(C([2H])([2H])[2H])C([2H])([2H])[2H] (repeat unit) | -125.00
*CCCC(C)O[Si](C)(C)O* (repeat unit) | -81.00
*Oc1ccc(C(c2ccc(Oc3ccc(C(=O)c4c(C(=O)c5ccc(*)cc5)c(-c5ccccc5)c(-c5ccc6ccccc6c5)c(-c5ccc6ccccc6c5)c4-c4ccccc4)cc3)cc2)(C(F)(F)F)C(F)(F)F)cc1 (repeat unit) | 275.00
*Oc1ccc(C(=O)c2ccc(Oc3ccc(C(=O)c4cccc(C(=O)c5ccc(*)cc5)c4)cc3)cc2)cc1 (repeat unit) | 152.00
*c1ccc(Oc2ccc(-c3ccc(Oc4ccc(N5C(=O)c6cccc(Oc7ccc(C(C)(C)c8ccc(Oc9cccc%10c9C(=O)N(*)C%10=O)cc8)cc7)c6C5=O)cc4)cc3)cc2)cc1 (repeat unit) | 236.00
*Oc1ccc(C2(c3ccc(OC(=O)OC4C(C)(C)C(OC(*)=O)C4(C)C)cc3)c3ccccc3-c3ccccc32)cc1 (repeat unit) | 214.00
*c1ccc(-c2ccc(Oc3ccc(C4(C)CC(C)(C)c5ccc(Oc6ccc(-c7ccc(N8C(=O)c9ccc(Oc%10ccc%11c(c%10)C(=O)N(*)C%11=O)cc9C8=O)cc7)cc6C(F)(F)F)cc54)cc3)c(C(F)(F)F)c2)cc1 (repeat unit) | 249.00
*O[Si](C)(C)O[Si](C)(C)OC(C)CCC(*)C (repeat unit) | -83.00
*Oc1ccc(S(=O)(=O)c2ccc(Oc3ccc(C(c4ccc(*)cc4)C(C)C)cc3)cc2)cc1 (repeat unit) | 200.00
*CC(O)COc1ccc(C(C)(c2ccccc2)c2ccc(O*)cc2)cc1 (repeat unit) | 115.00

Structure (SMILES) | glass transition temperature [°C]
*C(=O)Nc1ccc(C(c2ccc(NC(=O)c3ccc(N4C(=O)c5ccc(*)cc5C4=O)cc3C)cc2)(C(F)(F)F)C(F)(F)F)cc1 (repeat unit) | 355.00
*O[Si](*)(C)OCCOCCOCCOC (repeat unit) | -120.10
*c1cccc(C(=O)Nc2ccc(Oc3ccc(S(=O)(=O)c4ccc(Oc5ccc(NC(=O)c6cccc(N7C(=O)c8ccc(-c9ccc%10c(c9)C(=O)N(*)C%10=O)cc8C7=O)c6)cc5)cc4)cc3)cc2)c1 (repeat unit) | 258.00
*CC(*)C(=O)n1c2ccccc2c2ccccc21 (repeat unit) | 50.10
*c1ccc(Oc2ccc(-c3csc(/N=C/c4ccc(OCCCCCCCCOc5ccc(/C=N/c6nc(*)cs6)cc5)cc4)n3)cc2)cc1 (repeat unit) | 150.00
*CC(OC)C(C(=O)O)C(*)C(=O)O (repeat unit) | 144.00
*c1ccc(Oc2ccc(N3C(=O)c4c(c(-c5ccccc5)c(-c5ccc(-c6c(-c7ccccc7)c7c(c(-c8ccccc8)c6-c6ccccc6)C(=O)N(*)C7=O)cc5)c(-c5ccccc5)c4-c4ccccc4)C3=O)cc2)cc1 (repeat unit) | 413.00
*c1ccc(N2C(=O)c3ccc(-c4ccc5c(c4)C(=O)N(c4ccc6[nH]c(*)nc6c4)C5=O)cc3C2=O)cc1 (repeat unit) | 397.50
*Oc1cc(Oc2ccc(NC(=O)c3cc(NC(=O)C45CC6CC(CC(C6)C4)C5)cc(C(=O)Nc4ccc(*)cc4)c3)cc2)ccc1C12CC3CC(CC(C3)C1)C2 (repeat unit) | 345.00
*/C=C/C(C)C(*)C(=O)OCCN(C)c1ccc(N(C)C)cc1 (repeat unit) | 20.50
*c1cc(CCCCCCO[Si](C)(C)C)c(*)s1 (repeat unit) | 10.00
*Nc1ccc(C(=O)c2ccc(C(=O)c3ccc(Nc4ccc5c(c4)c4cc(*)ccc4n5CC(CC)CCCC)cc3)cc2)cc1 (repeat unit) | 213.00
*CC(*)(C)C(=O)OCCOc1ccc(C(=O)Oc2ccc(OCCCC)cc2)cc1 (repeat unit) | 137.00
*c1cccc(C(F)(F)C(F)(F)C(F)(F)C(F)(F)C(F)(F)c2cccc(N3C(=O)c4ccc(Oc5ccc6c(c5)C(=O)N(*)C6=O)cc4C3=O)c2)c1 (repeat unit) | 157.00
*/C=C/c1ccc(*)c(-c2c(OCC(CC)CCCC)ccc3ccccc23)c1 (repeat unit) | 118.00
*C(=O)c1ccc2c(c1)C(=O)N(c1ccc(C(C)(C)c3ccc(C(C)(C)c4ccc(N5C(=O)c6ccc(*)cc6C5=O)cc4)cc3)cc1)C2=O (repeat unit) | 322.00
*Oc1ccc(C(c2ccc(Oc3ccc(C(=O)c4cc(C(=O)c5ccc(*)cc5)cc(C(C)(C)C)c4)cc3)cc2)(C(F)(F)F)C(F)(F)F)cc1 (repeat unit) | 181.00
*OC(C)CCOC(=O)c1ccc(-c2ccc(C(*)=O)cc2)cc1 (repeat unit) | 92.50
*CC(*)C(=O)OCCC(C)OC (repeat unit) | -56.00
*Oc1ccc(CC(NC(=O)CCc2ccc(OC(=O)CCCCCCCCC(*)=O)cc2)C(=O)OCCCCCC)cc1 (repeat unit) | 22.00
*c1ccc2c(c1)C(=O)N(c1cc(N3C(=O)c4ccc(C(*)(C(F)(F)F)C(F)(F)F)cc4C3=O)ccc1C)C2=O (repeat unit) | 335.00
*OC1C(C)(C)C(OC(*)=O)C1(C)C (repeat unit) | 160.00

Structure (SMILES) | glass transition temperature [°C]
*c1cccc(C(=O)Nc2ccc(Oc3ccc(C(C)(C)c4ccc(Oc5ccc(NC(=O)c6cccc(N7C(=O)c8ccc(-c9ccc%10c(c9)C(=O)N(*)C%10=O)cc8C7=O)c6)cc5)cc4)cc3)cc2)c1 (repeat unit) | 257.00
*c1ccc(Oc2ccc(Oc3ccc(N4C(=O)c5ccc(Oc6ccc7ccc(Oc8ccc9c(c8)C(=O)N(*)C9=O)cc7c6)cc5C4=O)cc3)cc2)cc1 (repeat unit) | 228.00
*c1ccc(-c2ccc3c(c2)C(CCCCCCCC)(CCCCCCCC)c2cc(-c4ccc(N(*)c5ccc(N(c6ccc(C(C)(C)c7ccccc7)cc6)c6ccc(C(C)(C)c7ccccc7)cc6)cc5)cc4)ccc2-3)cc1 (repeat unit) | 137.00
*c1ccc2c(c1)C(=O)N(c1ccc(Sc3ccc(N4C(=O)c5ccc(C(*)(C(F)(F)F)C(F)(F)F)cc5C4=O)cc3)cc1)C2=O (repeat unit) | 301.00
*CC(F)(F)C(F)(F)C(F)(F)COC(=O)c1cc(C(=O)O*)cc(C(F)(F)C(F)(F)C(F)(F)C(F)(F)C(F)(F)C(F)(F)C(F)(F)F)c1 (repeat unit) | 27.00
*Oc1c(C)cc(C(C)(C)c2cc(C)c(OC(=O)c3ccc(C(*)=O)cc3)c(C)c2)cc1C (repeat unit) | 239.00
*CC(*)c1ccc(C(=O)CC)cc1 (repeat unit) | 102.00
*CC(*)c1ccccn1 (repeat unit) [Poly(o-vinyl pyridine) ] | 104 ± 1.1
*c1c(C)cc(-c2cc(C)c(-n3c(=O)c4cc5c(=O)n(*)c(=O)c5cc4c3=O)c(C)c2)cc1C (repeat unit) | 340.00
*CC(*)c1cccc(O)c1 (repeat unit) | 169.00
*c1ccc(Oc2ccc(Oc3ccc(Oc4ccc(-c5nc(*)nc(-c6ccccc6)n5)cc4)cc3)cc2)cc1 (repeat unit) | 203.00
*CC(CC(*)(C#N)C#N)c1ccc(Cl)cc1 (repeat unit) | 180.00
*OC(=O)c1ccc(C(=O)Oc2ccc3c(c2)Oc2cc(*)ccc2C32c3ccccc3-c3ccccc32)cc1 (repeat unit) | 290.00
*CC(*)c1ccc(COCCCC)cc1 (repeat unit) | 10.00
*c1ccc(Oc2c(C)cc(C(c3cc(C)c(Oc4ccc(N5C(=O)c6ccc(-c7ccc8c(c7)C(=O)N(*)C8=O)cc6C5=O)cc4)c(C)c3)c3cccc4ccccc34)cc2C)cc1 (repeat unit) | 289.50
*CCCCCCCCCCOC(=O)c1ccc(-c2ccc(C(=O)O*)cc2)cc1 (repeat unit) | 52.00
*Oc1ccc(N(c2ccc(OCCCCCC)cc2)c2ccc(-c3ccc(N(c4ccc(*)cc4)c4ccc(OCCCCCC)cc4)cc3)cc2)cc1 (repeat unit) | 105.00
*Oc1cccc(NC(=O)CCCCCC(=O)Nc2ccc(*)cc2)c1 (repeat unit) | 130.00
*c1ccc(Oc2ccc(Oc3ccc(-n4c(=O)c5cc6c(=O)n(*)c(=O)c6cc5c4=O)cc3)cc2C)cc1 (repeat unit) | 310.00
*Oc1ccc(S(=O)(=O)c2ccc(Oc3ccc(C(=O)c4cc(Br)cc(C(=O)c5ccc(*)cc5)c4)cc3)cc2)cc1 (repeat unit) | 192.00
